Reference: US10435361B2, “Kinase inhibitors” (Topivert Pharma Limited, priority 2013, dated 2019)
Like-named read-outs stand apart in the source and are kept apart here.

Key:
Lewis rats = assay: Endotoxin-induced uveitis in rats; assay type: in vivo; conditions: rats treated with intravitreal endotoxin LPS
Description: Male, Lewis rats (6-8 weeks old, Charles River UK Limited) are housed in cages of 3 at 19-21° C. with a 12 h light/dark cycle (07:00/19:00) and fed a standard diet of rodent chow and water ad libitum. Non-fasted rats are weighed, individually identified on the tail with a permanent marker, and receive a single intravitreal administration into the right vitreous humor (5 μL dose volume) of 100 ng/animal of LPS (Escherichia coli 0111:B4 prepared in PBS, Sigma Aldrich, UK) using a 32-gauge needle. Untreated rats are injected with PBS. Test compound, dexamethasone (Dex) or vehicle (20% hydroxypropyl-β-cyclodextrin, 0.1% HPMC, 0.01% Benzalkonium chloride, 0.05% EDTA, 0.7% NaCl in deionised water) are administered by the topical route onto the right eye (10 μL) of animals 30 minutes prior to LPS, at the time of LPS administration, and 1, 2 and 4 hours post LPS administration. Before administration, the solution or suspension to be administered is agitated for 5 minutes to ensure a uniform suspension. 6 hours after LPS dosing, animals are euthanized by overdose with pentobarbitone (i.v.). Following euthanasia, the right eye of each animal is enucleated and dissected into front (anterior) and back (posterior) sections around the lens. Each section is weighed and homogenised in 500 μL of sterile phosphate buffered saline followed by 20 minutes centrifugation at 12000 rpm at 4° C. The resulting supernatant is divided into 3 aliquots and stored at −80° C. until subsequent cytokine analysis by R&D DuoSet ELISA.

d-U937 cells = assay: LPS-induced TNFα/IL-8 release in d-U937 cells; assay type: cell-based; conditions: Homo sapiens, dU937, assay (aa)
Description: U937 cells, a human monocytic cell line, are differentiated to macrophage-type cells by incubation with phorbol myristate acetate (PMA; 100 ng/mL) for 48 to 72 hr. Cells are pre-incubated with final concentrations of test compound for 2 hr and are then stimulated with 0.1 μg/mL of LPS (from E. Coli: 0111:B4, Sigma) for 4 hr. The supernatant is collected for determination of TNFα and IL-8 concentrations by sandwich ELISA (Duo-set, R&D systems). […] The relative 50% effective concentration (REC50) is determined from the resultant concentration-response curve. The inhibition of IL-8 production is calculated at each concentration of test compound by comparison with vehicle control.

SCID animals = assay: Adoptive transfer in mice (CD45RBhigh cells into SCID animals); assay type: in vivo; conditions: for % Inhibition: Table 6a, inhibition of the induction window between naïve and vehicle animals; for levels of pro-inflammatory cytokines in samples of colon tissue: adoptive transfer model
Description: On Study day 0, female Balb/C mice are terminated and spleens obtained for CD45RB^high cell isolation (Using SCID IBD cell Separation protocol). Approximately 4×10^5 cells/mL CD45RB^high cells are then injected intraperitoneally (100 μL/mouse) into female SCID animals. On study day 14, mice are weighed and randomized into treatment groups based on body weight. On Day 14, compounds are administered BID, via oral gavage, in a peanut oil vehicle at the dose levels outlined below in Tables 6a and 6b and a dose volume of 5 mL/kg. Treatment continues until study day 42, at which point the animals are necropsied 4 hours after the morning administration. The colon length and weight are recorded and used as a secondary endpoint in the study as a measurement of colon oedema. The colon is then divided into six cross-sections, four of which are used for histopathology scoring (primary endpoint) and two are homogenised for cytokine analysis. Data shown is the % inhibition of the induction window between naïve animals and vehicle animals, where higher inhibition implies closer to the non-diseased, naïve, phenotype.

HT29 cells = assay: IL-1β-induced IL-8 release in HT29 cells; assay type: cell-based; conditions: Homo sapiens, HT-29, assay (d), read-out: IC50 Values for Inhibition of Cytokine Release HT29 cells IL-8
Description: HT29 cells, a human colon adenocarcinoma cell line, are plated in a 96 well plate (24 hr) and pre-treated with compounds at the desired concentration for 2 hours before addition of 5 ng/mL of IL-1β (Abcam) for 24 hours. Supernatants are harvested for IL-8 quantification by Sandwich ELISA (Duo-set, R&D System). The IC50 is determined from the dose response curve.

[1] = Plasma pharmacokinetics and total colon tissue distribution in mice, single oral administration; assay type: in vivo, C57BL/6 mice; conditions: male, C57BL/6, mouse, 5 mg/kg, read-out: Median plasma concentration
Description: Studies were conducted by Sai Life Sciences (Hinjewadi, Pune, India) to investigate the plasma pharmacokinetics and total colon tissue distribution of compounds of the invention. In particular, pharmacokinetic studies were carried out in: • male C57BL/6 mice, following a single oral administration; and • male Wistar rats following a single intravenous or oral administration.

[2] = Analysis of metabolites after incubation with hepatocytes; assay type: in vitro ADME; conditions: rat, Cynomolgus macaque, human hepatocytes
Description: Studies were conducted by BioFocus (Saffron Walden, UK) to determine the metabolic fate of the compound of Example 16 following incubation with rat, Cynomolgus macaque or human hepatocytes.
Separate incubations (n=3) of the compound of Example 16 (10 μM initial concentration) or DMSO control, were performed with cryopreserved hepatocytes from each species (0.5 million cell/mL) at 37° C. for 0, 60 and 90 minutes before termination of reactions and compound extraction with acetonitrile. Sample replicates were pooled prior to analysis.
Potential metabolites were identified using time-of-flight (TOF) and triple quadruple (TQ) mass spectrometers.

SMILES	cytokine levels in the anterior and posterior segments of the eyes (Lewis rats)	IC50 (d-U937 cells; method: relative to 10 μg/mL BIRB796 (REC50), read-out: IC50 Values for Inhibition of Cytokine Release dU937 cells TNFα) [nM]	IC50 (d-U937 cells; read-out: IC50 Values for Inhibition of Cytokine Release dU937 cells IL-8) [nM]	% Inhibition (SCID animals; 0.3 mg/kg BID oral gavage) [%]	% Inhibition (SCID animals; 1 mg/kg BID oral gavage) [%]	levels of pro-inflammatory cytokines in samples of colon tissue (SCID animals)	IC50 (HT29 cells) [nM]	concentration at 1 h [1] [ng/mL]	concentration at 2 h [1] [ng/mL]	concentration at 4 h [1] [ng/mL]	concentration at 6 h [1] [ng/mL]	concentration at 8 h [1] [ng/mL]	concentration at 12 h [1] [ng/mL]	concentration at 24 h [1] [ng/mL]	activity in adoptive transfer model (ratios of colon weight to length) (SCID animals; end of the study)	number of metabolites formed in hepatocytes ([2]; 10 μM, 0, 60 and 90 minutes)	metabolism at the naphthalene moiety ([2]; 10 μM)	% Inhibition (SCID animals; 3 mg/kg BID oral gavage) [%]
COCCOCCOCCOc1cc(Nc2nccc(Oc3ccc(NC(=O)Nc4cc(C(C)(C)C)cc(NS(C)(=O)=O)c4OC)c4ccccc34)n2)cc(OC)c1 [Example 4, N-(5-(tert-Butyl)-2-methoxy-3-(3-(4-((2-((3-methoxy-5-(2-(2-(2-methoxyethoxy)ethoxy)-ethoxy)phenyl)amino)pyrimidin-4-yl)oxy)naphthalen-1-yl)ureido)phenyl)methanesulfonamide]	significantly reduced	1	0.8	62	110	significantly reduced	4.9	–	–	–	–	–	–	–	–	–	–	–
C#Cc1cc(Nc2nccc(Oc3ccc(NC(=O)Nc4cc(C(C)(C)C)cc(NS(C)(=O)=O)c4OC)c4ccccc34)n2)cc(C(=O)NCCOCCOCCOC)c1 [Example 16, 3-((4-((4-(3-(5-(tert-Butyl)-2-methoxy-3-(methylsulfonamido)phenyl)ureido)naphthalen-1-yl)oxy)pyrimidin-2-yl)amino)-5-ethynyl-N-(2-(2-(2-methoxyethoxy)ethoxy)ethyl)benzamide]	–	–	–	–	–	significantly reduced	8	0	0	0	0	0	0	0	displayed significant activity	9	no products were noted that could be connected to metabolism at the naphthalene moiety	–
COc1cc(Nc2cc(Oc3ccc(NC(=O)Nc4cc(C(C)(C)C)cc(NS(C)(=O)=O)c4OC)c4ccccc34)ccn2)cc(C(=O)NCCN2CCOCC2)c1 [Example 27, 3-((4-((4-(3-(5-(tert-Butyl)-2-methoxy-3-(methylsulfonamido)phenyl)ureido)naphthalen-1-yl)oxy)pyridin-2-yl)amino)-5-methoxy-N-(2-morpholinoethyl)benzamide]	significantly reduced	–	–	–	–	significantly reduced	8.3	–	–	–	–	–	–	–	–	–	–	99
